# Test results taken from PubChem BioAssay AID1963975 (Molecular Pharmacology Branch, DTP, NCI, 2024).
# Test system: 624824-186-R-J2-PDC multicell spheroids, viability
# Assay: Anticancer human tumor 624824-186-R-J2-PDC patient-derived colon adenocarcinoma cell line growth inhibition [PI3K]
# Conditions: for IC50: curve of first compound; for viability, T/C: stronger effect = lower value
# From the text: Combinatorial screen of targeted agents with the PI3K inhibitors inavolisib, alpelisib, duvelisib, and copanlisib in multi-cell type tumor spheroids
# A high-throughput screen of multi-cell type tumor spheroids was designed to identify active combinations of targeted small molecules and PI3K pathway inhibitors. Complex spheroids include a stromal component modeled by human endothelial cells (HUVEC) and fibroblasts modeled by human mesenchymal stem cells (MSCs). The concentration ranges selected for each drug and investigational agent were based upon clinically achievable concentrations if the clinical Cmax of the agent was known.
# Compounds. The drugs and investigational agents: inavolisib (NSC800729), alpelisib (NSC765974), duvelisib (NSC772469), copanlisib (NSC816437), ipatasertib (NSC767898), afuresertib (NSC778305), talazoparib (NSC767125), sapanisertib (NSC764658), selumetinib (NSC741078), tovorafenib (DAY101, NSC766906), vemurafenib (NSC761431), ravoxertinib (NSC781343), sotorasib (NSC818433), MRTX1133 (NSC 836407), abemaciclib (NSC 768073), palbociclib (NSC758247), venetoclax (NSC 766270), SY5609 (NSC837396), enzalutamide (NSC755605), and darolutamide (NSC825331), were obtained from the National Cancer Institute (NCI) Developmental Therapeutics Program Chemical Repository. The FDA-approved anticancer drug set is available from the NCI Developmental Therapeutics Program. […] The stock solutions were prepared in dimethyl sulfoxide (DMSO, Sigma-Aldrich, St. Louis, MO, cat. D2650) at 800-fold the tested concentration and stored at -70 degrees C prior to their use. All drugs and investigational agents were tested over a range starting from a high concentration at or near the clinical Cmax and decreasing in half-log increments. If the clinical Cmax for an agent had not been determined, the highest concentration tested was 10 microM.
# Cell Culture. All cells were maintained in an incubator at 37 degrees C and 5% CO2 with 95% humidity. The PDC lines were cultured according to standard operating procedures established by the NCI PDMR (https://pdmr.cancer.gov/sops/default.htm). All PDCs were thawed and cultured in Matrigel-coated flasks prepared with a working solution of 1X Ham's F-12 nutrient mix, without supplementation (Invitrogen, Waltham, MA, cat. 11765054), 100 U/mL penicillin-streptomycin (Invitrogen, cat. 15140122), and 2.5% Matrigel (Corning Inc., Corning, NY, cat. 354248) for the first three passages. The 354836-022-R-J1-PDC, 475296-252-R-J1-PDC, and 997726-040-R-J2-PDC lines were cultured in 6A media, which includes advanced DMEM/F-12 (Thermo Fisher Scientific, cat. 12634028), 10 mM HEPES (Thermo Fisher Scientific, cat. 15630080), 1X GlutaMAX supplement (Thermo Fisher Scientific, cat. 35050061), 0.1 mg/mL primocin (InvivoGen, San Diego, CA, cat. ant-pm-2), 10% defined fetal bovine serum, heat inactivated (HyClone Laboratories Inc., Logan, UT, cat. SH30070.03HI), 50% L-WRN conditioned media (ATCC, cat. CRL-3276), 1.25 mM N-Acetyl-L-cysteine (Sigma-Aldrich, cat. A9165), 10 mM nicotinamide (Sigma-Aldrich, cat. N0636), 1X B-27 supplement (Thermo Fisher Scientific, cat. 17504044), 1X N-2 supplement (Thermo Fisher Scientific, cat. 17502048), and 10 microM Y-27632 dihydrochloride (Tocris Bioscience, Bristol, United Kingdom, cat. 1254). The 624824-186-R-J2-PDC line was cultured in 6C/Colon 1B media, which includes all 6A media components plus 50 ng/mL human EGF recombinant protein (Thermo Fisher Scientific, cat. PHG0311). […]
# [1] = second compound 0.00316 µM, first compound 0.0316 µM
# [2] = second compound 0.00316 µM, first compound 0.1 µM
# [3] = second compound 0.00316 µM, first compound 0.316 µM
# [4] = second compound 0.00316 µM, first compound 1 µM
# [5] = second compound 0.00316 µM, first compound 3.16 µM
# [6] = second compound 0.00316 µM, first compound 10 µM
# [7] = second compound 0.01 µM, first compound 0.0316 µM
# [8] = second compound 0.01 µM, first compound 0.1 µM
# [9] = second compound 0.01 µM, first compound 0.316 µM
# [10] = second compound 0.01 µM, first compound 1 µM
# [11] = second compound 0.01 µM, first compound 3.16 µM
# [12] = second compound 0.01 µM, first compound 10 µM
# [13] = second compound 0.0316 µM, first compound 0.0316 µM
# [14] = second compound 0.0316 µM, first compound 0.1 µM
# [15] = second compound 0.0316 µM, first compound 0.316 µM
# [16] = second compound 0.0316 µM, first compound 1 µM
# [17] = second compound 0.0316 µM, first compound 3.16 µM
# [18] = second compound 0.0316 µM, first compound 10 µM
# [19] = second compound 0.1 µM, first compound 0.0316 µM
# [20] = second compound 0.1 µM, first compound 0.1 µM
# [21] = second compound 0.1 µM, first compound 0.316 µM
# [22] = second compound 0.1 µM, first compound 1 µM
# [23] = second compound 0.1 µM, first compound 3.16 µM
# [24] = second compound 0.1 µM, first compound 10 µM
# [25] = second compound 0.316 µM, first compound 0.0316 µM
# [26] = second compound 0.316 µM, first compound 0.1 µM
# [27] = second compound 0.316 µM, first compound 0.316 µM
# [28] = second compound 0.316 µM, first compound 1 µM
# [29] = second compound 0.316 µM, first compound 3.16 µM
# [30] = second compound 0.316 µM, first compound 10 µM
# [31] = second compound 1 µM, first compound 0.0316 µM
# [32] = second compound 1 µM, first compound 0.1 µM
# [33] = second compound 1 µM, first compound 0.316 µM
# [34] = second compound 1 µM, first compound 1 µM
# [35] = second compound 1 µM, first compound 3.16 µM
# [36] = second compound 1 µM, first compound 10 µM
# 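Further: spheroids exposed to agents for 7 days before viability read.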
# 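Wherever viability, T/C is given: 100% = DMSO vehicle treated spheroids.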
compound,measurement,setting,value
CC1(C)CCC(CN2CCN(c3ccc(C(=O)NS(=O)(=O)c4ccc(NCC5CCOCC5)c([N+](=O)[O-])c4)c(Oc4cnc5[nH]ccc5c4)c3)CC2)=C(c2ccc(Cl)cc2)C1 + CC(Nc1ccc2c(c1)OCCn1cc(N3C(=O)OCC3C(F)F)nc1-2)C(N)=O,IC50,second compound 0.00316 µM,> 10 µM
same,IC50,second compound 0.01 µM,> 10 µM
same,IC50,second compound 0.0316 µM,> 10 µM
same,IC50,second compound 0.1 µM,> 10 µM
same,IC50,second compound 0.316 µM,> 10 µM
same,IC50,second compound 1 µM,> 10 µM
same,"viability, T/C",[1],88.5%
same,"viability, T/C",[2],86.8%
same,"viability, T/C",[3],104%
same,"viability, T/C",[4],96.9%
same,"viability, T/C",[5],89.1%
same,"viability, T/C",[6],77.4%
same,"viability, T/C",[7],93.3%
same,"viability, T/C",[8],81.3%
same,"viability, T/C",[9],123%
same,"viability, T/C",[10],93.7%
same,"viability, T/C",[11],75.5%
same,"viability, T/C",[12],69%
same,"viability, T/C",[13],81.4%
same,"viability, T/C",[14],90.5%
same,"viability, T/C",[15],99.9%
same,"viability, T/C",[16],72.7%
same,"viability, T/C",[17],74.5%
same,"viability, T/C",[18],79.1%
same,"viability, T/C",[19],72.7%
same,"viability, T/C",[20],66.9%
same,"viability, T/C",[21],79.1%
same,"viability, T/C",[22],66.9%
same,"viability, T/C",[23],81.1%
same,"viability, T/C",[24],56.6%
same,"viability, T/C",[25],79.6%
same,"viability, T/C",[26],74.2%
same,"viability, T/C",[27],94.9%
same,"viability, T/C",[28],77.4%
same,"viability, T/C",[29],79.1%
same,"viability, T/C",[30],63%
same,"viability, T/C",[31],87.1%
same,"viability, T/C",[32],93.3%
same,"viability, T/C",[33],79.3%
same,"viability, T/C",[34],86%
same,"viability, T/C",[35],94.4%
same,"viability, T/C",[36],77.8%
C[C@@H](NC(=O)c1ncnc(N)c1Cl)c1ncc(C(=O)Nc2cc(C(F)(F)F)c(Cl)cn2)s1 + CC(Nc1ccc2c(c1)OCCn1cc(N3C(=O)OCC3C(F)F)nc1-2)C(N)=O,IC50,second compound 0.00316 µM,> 10 µM
same,IC50,second compound 0.01 µM,> 10 µM
same,IC50,second compound 0.0316 µM,> 10 µM
same,IC50,second compound 0.1 µM,> 10 µM
same,IC50,second compound 0.316 µM,> 10 µM
same,IC50,second compound 1 µM,> 10 µM
same,"viability, T/C",[1],108%
same,"viability, T/C",[2],107%
same,"viability, T/C",[3],73.1%
same,"viability, T/C",[4],59.5%
same,"viability, T/C",[5],78%
same,"viability, T/C",[6],77.9%
same,"viability, T/C",[7],110%
same,"viability, T/C",[8],86.4%
same,"viability, T/C",[9],80.7%
same,"viability, T/C",[10],72.8%
same,"viability, T/C",[11],78.8%
same,"viability, T/C",[12],77.2%
same,"viability, T/C",[13],92.6%
same,"viability, T/C",[14],90.5%
same,"viability, T/C",[15],83%
same,"viability, T/C",[16],63.5%
same,"viability, T/C",[17],73.4%
same,"viability, T/C",[18],78.2%
same,"viability, T/C",[19],115%
same,"viability, T/C",[20],99.2%
same,"viability, T/C",[21],65.7%
same,"viability, T/C",[22],69.4%
same,"viability, T/C",[23],77.6%
same,"viability, T/C",[24],68.7%
same,"viability, T/C",[25],98%
same,"viability, T/C",[26],77%
same,"viability, T/C",[27],68.7%
same,"viability, T/C",[28],68.5%
same,"viability, T/C",[29],67.2%
same,"viability, T/C",[30],56.6%
same,"viability, T/C",[31],77%
same,"viability, T/C",[32],93.7%
same,"viability, T/C",[33],68.4%
same,"viability, T/C",[34],63.2%
same,"viability, T/C",[35],55.4%
same,"viability, T/C",[36],53.1%
